One assay deals with DGKα (Homo sapiens (Human), UniProt P23743). As to the kind of experiment: In vitro DGKα inhibition assay (ADP-Glo). Format: biochemical. Conditions: first column of Table A; His-tagged human recombinant DGKα 0.1 nM, 50 μM ATP, 20 μM DLG. Background: ADP-Glo first removes unused ATP, then detects ADP through luciferase.
The target of another assay is DGKζ (Homo sapiens (Human), UniProt Q13574). As to the kind of experiment: In vitro DGKζ inhibition assay (ADP-Glo). Format: biochemical. Conditions: second column of Table A, head printed DGKα, presumably DGKζ; His-tagged human recombinant DGKζ 0.4 nM, 30 μM ATP, 20 μM DLG.
DGKζ, sequence (Q13574 whole entry): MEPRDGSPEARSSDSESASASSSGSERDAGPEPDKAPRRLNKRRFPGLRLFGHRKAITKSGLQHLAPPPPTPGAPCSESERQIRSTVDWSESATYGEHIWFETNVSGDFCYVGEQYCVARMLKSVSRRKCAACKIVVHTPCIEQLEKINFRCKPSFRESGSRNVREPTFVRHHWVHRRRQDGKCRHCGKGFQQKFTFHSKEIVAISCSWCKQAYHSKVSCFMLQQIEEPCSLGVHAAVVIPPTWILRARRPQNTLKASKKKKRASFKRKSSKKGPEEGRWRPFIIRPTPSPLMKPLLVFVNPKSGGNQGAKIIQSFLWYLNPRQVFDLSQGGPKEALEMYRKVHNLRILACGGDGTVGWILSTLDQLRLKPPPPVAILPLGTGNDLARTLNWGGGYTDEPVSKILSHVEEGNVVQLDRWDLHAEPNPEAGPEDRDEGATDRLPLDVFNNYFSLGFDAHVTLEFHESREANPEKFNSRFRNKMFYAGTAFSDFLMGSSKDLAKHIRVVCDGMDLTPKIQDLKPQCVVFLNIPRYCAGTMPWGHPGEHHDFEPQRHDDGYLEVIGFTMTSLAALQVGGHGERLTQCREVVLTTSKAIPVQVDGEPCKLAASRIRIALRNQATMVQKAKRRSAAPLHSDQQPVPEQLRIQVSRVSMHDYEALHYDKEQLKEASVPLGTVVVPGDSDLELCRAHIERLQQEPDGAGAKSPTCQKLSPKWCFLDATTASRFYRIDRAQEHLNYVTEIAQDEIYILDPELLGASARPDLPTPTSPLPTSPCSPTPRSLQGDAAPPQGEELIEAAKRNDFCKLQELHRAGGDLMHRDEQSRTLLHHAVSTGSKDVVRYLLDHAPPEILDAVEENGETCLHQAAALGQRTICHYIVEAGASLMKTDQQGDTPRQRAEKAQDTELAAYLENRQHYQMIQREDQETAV

Bounds are passed on as bounds.

DGKα, sequence (P23743 whole entry): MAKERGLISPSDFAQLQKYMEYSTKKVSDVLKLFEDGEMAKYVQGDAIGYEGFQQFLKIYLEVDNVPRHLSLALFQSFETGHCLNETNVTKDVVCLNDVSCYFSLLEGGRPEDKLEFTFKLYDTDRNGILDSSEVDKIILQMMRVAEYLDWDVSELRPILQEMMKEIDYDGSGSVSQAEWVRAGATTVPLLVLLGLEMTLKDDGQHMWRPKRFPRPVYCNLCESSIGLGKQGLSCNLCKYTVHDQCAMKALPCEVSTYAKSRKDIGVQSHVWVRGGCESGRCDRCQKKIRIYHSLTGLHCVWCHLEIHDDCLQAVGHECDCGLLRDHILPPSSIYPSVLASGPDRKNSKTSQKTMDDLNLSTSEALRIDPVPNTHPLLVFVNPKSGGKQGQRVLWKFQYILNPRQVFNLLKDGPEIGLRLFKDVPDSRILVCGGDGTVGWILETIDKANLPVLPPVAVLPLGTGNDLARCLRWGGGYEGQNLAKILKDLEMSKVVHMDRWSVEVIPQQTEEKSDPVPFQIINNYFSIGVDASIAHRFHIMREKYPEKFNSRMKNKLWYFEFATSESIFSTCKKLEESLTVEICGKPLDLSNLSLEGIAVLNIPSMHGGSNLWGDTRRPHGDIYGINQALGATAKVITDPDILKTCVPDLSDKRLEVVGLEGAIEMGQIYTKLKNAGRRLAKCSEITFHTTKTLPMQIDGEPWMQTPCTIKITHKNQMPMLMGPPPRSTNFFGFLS

On to `CC[C@@H]1CN(c2nc(=O)n(C)c3c2nnn3C[C@H]2CCCO2)[C@@H](C)CN1C(c1ccc(C(F)(F)F)cc1)C1CC(F)(F)C1` (stereo partly drawn) [Example 44, 7-((2S,5R)-4-((3,3-Difluorocyclobutyl)(4-(trifluoromethyl)phenyl)methyl)-5-ethyl-2-methylpiperazin-1-yl)-4-methyl-3-(((R)-tetrahydrofuran-2-yl)methyl)-3,4-dihydro-5H-[1,2,3]triazolo[4,5-d]pyrimidin-5-one], for which the IC50 on DGKα and at DGKζ was not above 10 nM throughout.
Take `CC[C@@H]1CN(c2nc(=O)n(C)c3c2nc(C)n3C[C@@H]2CCCO2)[C@@H](C)CN1[C@H](CC)c1ccc(C(F)(F)F)cc1` [Example 29, 6-((2S,5R)-5-ethyl-2-methyl-4-((R)-1-(4-(trifluoromethyl)phenyl)propyl)piperazin-1-yl)-3,8-dimethyl-9-(((S)-tetrahydrofuran-2-yl)methyl)-3,9-dihydro-2H-purin-2-one]: the IC50 at DGKα and at DGKζ was not above 10 nM each time.
On to `CC[C@@H]1CN(c2nc(=O)n(C)c3c2nnn3C[C@H]2CCCO2)[C@@H](C)CN1[C@H](CC)c1ccc(Cl)cc1` [Example 27, 7-((2S,5R)-4-((R)-1-(4-chlorophenyl)propyl)-5-ethyl-2-methylpiperazin-1-yl)-4-methyl-3-(((R)-tetrahydrofuran-2-yl)methyl)-3,4-dihydro-5H-[1,2,3]triazolo[4,5-d]pyrimidin-5-one], for which the IC50 (usually the midpoint of a concentration-inhibition curve) at DGKα is not above 10 nM; on DGKζ, not above 100 nM.
Regarding `Cc1nc2c(N3C[C@@H](C)N(C(c4ccc(Cl)c(F)c4)C4CC(F)(F)C4)C[C@@H]3C)nc(=O)n(C)c2n1C[C@@H]1CCCO1` (stereo partly drawn) [Example 39, 6-((2S,5R)-4-((4-Chloro-3-fluorophenyl)(3,3-difluorocyclobutyl)methyl)-2,5-dimethylpiperazin-1-yl)-3,8-dimethyl-9-(((S)-tetrahydrofuran-2-yl)methyl)-3,9-dihydro-2H-purin-2-one], the IC50 at DGKα and on DGKζ was not above 10 nM in each case.
On to `CC(C)CC(c1ccc(Cl)cc1)N1C[C@H](C)N(c2nc(=O)n(C)c3c2nnn3C[C@@H]2CCCO2)C[C@H]1C` (single isomer, unassigned) [Example 17], for which the half-maximal inhibitory concentration (IC50) at DGKα and at DGKζ was not above 10 nM each time.
Regarding `CC[C@@H]1CN(c2nc(=O)n(C)c3c2nnn3C[C@H]2CCCO2)[C@@H](C)CN1[C@H](c1ccc(Cl)cc1)[C@@H]1CC1(F)F` [Example 22, 7-((2S,5R)-4-((S)-(4-Chlorophenyl)((S)-2,2-difluorocyclopropyl)methyl)-5-ethyl-2-methylpiperazin-1-yl)-4-methyl-3-(((R)-tetrahydrofuran-2-yl)methyl)-3,4-dihydro-5H-[1,2,3]triazolo[4,5-d]pyrimidin-5-one], the IC50 on DGKα was not above 10 nM; on DGKζ it was not above 100 nM.
The corresponding values for `CC[C@@H]1CN(c2nc(=O)n(C)c3c2nnn3C[C@H]2CCCO2)[C@@H](C)CN1[C@@H](CC)c1ccc(Cl)cc1` [Example 26, 7-((2S,5R)-4-((S)-1-(4-Chlorophenyl)propyl)-5-ethyl-2-methylpiperazin-1-yl)-4-methyl-3-(((R)-tetrahydrofuran-2-yl)methyl)-3,4-dihydro-5H-[1,2,3]triazolo[4,5-d]pyrimidin-5-one] are not above 10 nM and not above 10 nM.
On the same counts, the results for `C[C@@H]1CN(c2nc(=O)n(C)c3c2nnn3C[C@@H]2CCCO2)[C@@H](C)CN1C(c1ccc(F)cc1)c1ccc(F)cc1` [Example 12, 7-((2S,5R)-4-(Bis(4-fluorophenyl)methyl)-2,5-dimethylpiperazin-1-yl)-4-methyl-3-(((S)-tetrahydrofuran-2-yl)methyl)-3,4-dihydro-5H-[1,2,3]triazolo[4,5-d]pyrimidin-5-one] are not above 10 nM and not above 10 nM.
`C[C@@H]1CN(c2nc(=O)n(C)c3c2ncn3CC2(O)CCC2)[C@@H](C)CN1C(c1ccc(Cl)cc1)C1CC(F)(F)C1` (stereo partly drawn) [Example 67, 6-((2S,5R)-4-((4-Chlorophenyl)(3,3-difluorocyclobutyl)methyl)-2,5-dimethylpiperazin-1-yl)-9-((1-hydroxycyclobutyl)methyl)-3-methyl-3,9-dihydro-2H-purin-2-one]: the IC50 on DGKα and at DGKζ was not above 10 nM each time.
In the case of `CC(C)[C@@H](c1ccc(Cl)cc1)N1C[C@H](C)N(c2nc(=O)n(C)c3c2ncn3CC2(O)CCCC2)C[C@H]1C` [Example 57, 6-((2S,5R)-4-((S)-1-(4-Chlorophenyl)-2-methylpropyl)-2,5-dimethylpiperazin-1-yl)-9-((1-hydroxycyclopentyl)methyl)-3-methyl-3,9-dihydro-2H-purin-2-on], the IC50 at DGKα and on DGKζ was not above 10 nM in each case.
As to `CC[C@@H]1CN(c2nc(=O)n(C)c3c2nc(C)n3C[C@@H]2CCCO2)[C@@H](C)CN1[C@H](c1ccc(C(F)(F)F)cc1)C(C)C` [Example 59, 6-((2S,5R)-5-Ethyl-2-methyl-4-((S)-2-methyl-1-(4-(trifluoromethyl)phenyl)propyl)piperazin-1-yl)-3,8-dimethyl-9-(((S)-tetrahydrofuran-2-yl)methyl)-3,9-dihydro-2H-purin-2-one], the IC50 on DGKα and on DGKζ was not above 10 nM throughout.
Consider `CCC(c1ccc(C(F)(F)F)cc1)N1C[C@H](C)N(c2nc(=O)n(C)c3c2ncn3CC2(O)CCCC2)C[C@H]1CC` (single isomer, unassigned) [Example 73], for which the IC50 on DGKα and on DGKζ was not above 10 nM throughout.
Regarding `C[C@@H]1CN(c2nc(=O)n(C)c3c2nnn3C[C@H]2CCCO2)[C@@H](C)CN1C(c1ccc(C(F)(F)F)cc1)C1CC(F)(F)C1` (stereo partly drawn) [Example 43, 7-((2S,5R)-4-((3,3-Difluorocyclobutyl)(4-(trifluoromethyl)phenyl)methyl)-2,5-dimethylpiperazin-1-yl)-4-methyl-3-(((R)-tetrahydrofuran-2-yl)methyl)-3,4-dihydro-5H-[1,2,3]triazolo[4,5-d]pyrimidin-5-one], the IC50 at DGKα and on DGKζ was not above 10 nM throughout.
For the compound `CC[C@@H]1CN(c2nc(=O)n(C)c3c2nc(C)n3C[C@H]2OCC[C@H]2O)[C@@H](C)CN1[C@H](CC)c1ccc(C(F)(F)F)cc1` [Example 72, 6-((2S,5R)-5-ethyl-2-methyl-4-((R)-1-(4-(trifluoromethyl)phenyl)propyl)piperazin-1-yl)-9-(((2R,3R)-3-hydroxytetrahydrofuran-2-yl)methyl)-3,8-dimethyl-3,9-dihydro-2H-purin-2-one], the IC50 at DGKα and on DGKζ was not above 10 nM in each case.
On to `Cc1nc2c(N3C[C@@H](C)N(C(c4ccc(C(F)(F)F)cc4)C4CC(F)(F)C4)C[C@@H]3C)cc(=O)n(C)c2n1C[C@@H]1CCCO1` (stereo partly drawn) [Example 40, 7-((2S,5R)-4-((3,3-Difluorocyclobutyl)(4-(trifluoromethyl)phenyl)methyl)-2,5-dimethylpiperazin-1-yl)-2,4-dimethyl-3-(((S)-tetrahydrofuran-2-yl)methyl)-3,4-dihydro-5H-imidazo[4,5-b]pyridin-5-one], for which the IC50 on DGKα and on DGKζ was not above 100 nM throughout.
In the case of `Cc1nc2c(N3C[C@@H](C)N([C@H](c4ccc5cc(F)ccc5n4)C(C)C)C[C@@H]3C)nc(=O)n(C)c2n1C[C@@H]1CCCO1` [Example 47, 6-((2S,5R)-4-((S)-1-(6-Fluoroquinolin-2-yl)-2-methylpropyl)-2,5-dimethylpiperazin-1-yl)-3,8-dimethyl-9-(((S)-tetrahydrofuran-2-yl)methyl)-3,9-dihydro-2H-purin-2-one], the IC50 at DGKα and on DGKζ was not above 10 nM in each case.
With `CC[C@@H]1CN(c2nc(=O)n(C)c3c2nc(C)n3C[C@H]2OCC[C@@H]2O)[C@@H](C)CN1[C@H](CC)c1ccc(C(F)(F)F)cc1` [Example 70, 6-((2S,5R)-5-ethyl-2-methyl-4-((R)-1-(4-(trifluoromethyl)phenyl)propyl)piperazin-1-yl)-9-(((2R,3S)-3-hydroxytetrahydrofuran-2-yl)methyl)-3,8-dimethyl-3,9-dihydro-2H-purin-2-one], the IC50 at DGKα and on DGKζ was not above 10 nM each time.
With `CC(C)CC(c1ccc(Cl)cc1)N1C[C@H](C)N(c2nc(=O)n(C)c3c2nnn3C[C@H]2CCCO2)C[C@H]1C` (single isomer, unassigned) [Example 18], the IC50 on DGKα and at DGKζ was not above 10 nM each time.
Regarding `CC[C@@H]1CN(c2nc(=O)n(C)c3c2nnn3CC2(O)CCC2)[C@@H](C)CN1C(C)c1ccc(C(F)(F)F)cc1` (single isomer, unassigned) [Example 64], the IC50 on DGKα and at DGKζ was not above 10 nM each time.
With `CC[C@@H]1CN(c2nc(=O)n(C)c3c2nnn3C[C@H]2CCCO2)[C@@H](C)CN1C(CC(C)C)c1ccc(Cl)cc1` (single isomer, unassigned) [Example 20], the IC50 at DGKα and at DGKζ was not above 10 nM each time.
`CC[C@@H]1CN(c2nc(=O)n(C)c3c2nc(C)n3C[C@H]2OCC[C@H]2O)[C@@H](C)CN1[C@@H](CC)c1ccc(C(F)(F)F)cc1` [Example 71, 6-((2S,5R)-5-Ethyl-2-methyl-4-((S)-1-(4-(trifluoromethyl)phenyl)propyl)piperazin-1-yl)-9-(((2R,3R)-3-hydroxytetrahydrofuran-2-yl)methyl)-3,8-dimethyl-3,9-dihydro-2H-purin-2-one]: the IC50 at DGKα and at DGKζ was not above 10 nM each time.
With `C[C@@H]1CN(c2nc(=O)n(C)c3c2ncn3C[C@@H]2CCCO2)[C@@H](C)CN1C(c1ccc(F)cc1)c1ccc(F)cc1` [Example 10, 6-((2S,5R)-4-(Bis(4-fluorophenyl)methyl)-2,5-dimethylpiperazin-1-yl)-3-methyl-9-(((S)-tetrahydrofuran-2-yl)methyl)-3,9-dihydro-2H-purin-2-one], the half-inhibitory concentration (IC50) on DGKα and at DGKζ was not above 10 nM in each case.

The values above are taken from patent US20250066363A1, “Bicyclic DGK Inhibitors” (Incyte Corporation, priority 2023, published 2025).
